Test results reported in ChEMBL document CHEMBL5252617, “Design, synthesis and biological evaluation of novel N-(methyl-d3) pyridazine-3-carboxamide derivatives as TYK2 inhibitors” (Bioorg Med Chem Lett, 2023).
The source made the active and inactive calls. The rule behind the calls is not given here.

Assays:
[1] = biological target: T1, Non-receptor tyrosine-protein kinase TYK2 (Homo sapiens, UniProt P29597); assay: Inhibition of TYK2 dependent IFNalpha-stimulated STAT3 phosphorylation in human Jurkat cells; assay type: cell-based
T1 sequence (P29597 whole entry): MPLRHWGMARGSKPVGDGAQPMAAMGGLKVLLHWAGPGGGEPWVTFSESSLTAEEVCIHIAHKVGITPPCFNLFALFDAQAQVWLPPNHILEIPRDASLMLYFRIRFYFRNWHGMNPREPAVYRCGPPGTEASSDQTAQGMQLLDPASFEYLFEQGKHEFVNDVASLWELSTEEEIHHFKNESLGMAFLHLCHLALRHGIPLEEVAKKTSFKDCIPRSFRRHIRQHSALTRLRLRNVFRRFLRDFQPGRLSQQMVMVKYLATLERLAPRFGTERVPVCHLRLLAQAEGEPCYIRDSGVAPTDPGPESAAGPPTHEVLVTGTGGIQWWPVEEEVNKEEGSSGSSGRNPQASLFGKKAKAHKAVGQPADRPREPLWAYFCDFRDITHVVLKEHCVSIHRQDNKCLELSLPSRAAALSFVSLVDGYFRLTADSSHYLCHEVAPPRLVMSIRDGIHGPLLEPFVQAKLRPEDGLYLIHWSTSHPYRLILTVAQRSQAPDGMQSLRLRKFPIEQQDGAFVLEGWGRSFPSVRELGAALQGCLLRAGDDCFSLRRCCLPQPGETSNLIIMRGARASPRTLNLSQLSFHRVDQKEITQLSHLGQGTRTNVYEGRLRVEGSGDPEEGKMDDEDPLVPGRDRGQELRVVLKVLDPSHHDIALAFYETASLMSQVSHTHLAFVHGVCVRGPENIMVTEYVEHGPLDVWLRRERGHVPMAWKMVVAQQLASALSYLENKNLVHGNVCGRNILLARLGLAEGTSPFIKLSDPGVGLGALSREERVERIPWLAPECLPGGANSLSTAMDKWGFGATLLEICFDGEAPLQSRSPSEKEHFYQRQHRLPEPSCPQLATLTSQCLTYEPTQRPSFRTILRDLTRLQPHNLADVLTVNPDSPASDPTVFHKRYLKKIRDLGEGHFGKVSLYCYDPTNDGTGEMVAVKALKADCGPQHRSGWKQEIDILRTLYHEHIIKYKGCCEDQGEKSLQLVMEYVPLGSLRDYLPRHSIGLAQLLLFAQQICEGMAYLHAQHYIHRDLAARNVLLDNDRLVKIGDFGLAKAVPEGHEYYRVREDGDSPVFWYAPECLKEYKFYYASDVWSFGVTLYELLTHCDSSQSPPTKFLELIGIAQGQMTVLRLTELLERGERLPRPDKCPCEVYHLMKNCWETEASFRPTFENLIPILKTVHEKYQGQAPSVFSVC

[2] = Stability in human liver microsomes assessed as parent compound remaining measured after 60 mins; assay type: ADME, Microsome; settings: read-out: Stability
[3] = Stability in mouse liver microsomes assessed as parent compound remaining measured after 60 mins; assay type: ADME, Microsome; settings: read-out: Stability
[4] = biological target: T1, Non-receptor tyrosine-protein kinase TYK2; assay: Binding affinity to TYK2 JH2 domain (unknown origin) assessed as melting temperature at 10 uM by thermal shift assay; settings: tested as the 2H-labelled form
[5] = biological target: T1, Non-receptor tyrosine-protein kinase TYK2; assay: Binding affinity to TYK2 JH2 domain (unknown origin) assessed as melting temperature at 1 uM by thermal shift assay; settings: tested as the 2H-labelled form
Mus musculus = assay: Anti-colitis activity against anti-CD40 induced immunodeficient Rag1 KO colitis mouse model assessed as decrease in colon weight at 15 to 30 mg/kg, po bid; assay type: functional, organism-based; settings: dose 15-30 mg/kg, tested as the 2H-labelled form

Row | IC50 [1] [nM] | remaining at 1 h [2] [%] | remaining at 1 h [3] [%] | Tm [4] [°C] | Tm [5] [°C] | Structure (SMILES) | Activity (Mus musculus)
1 | – | – | – | 66.5 | 64 | CNC(=O)c1nnc(Nc2ccccn2)cc1Nc1cccc(C(=O)Nc2ccc(N3CCCCC3=O)cc2)c1OC | –
2 | – | – | – | 56.5 | 52.5 | CNC(=O)c1nnc(NC(=O)C2CC2)cc1Nc1cccc(C(=O)Nc2ccc(-c3cccc(=O)[nH]3)cc2)c1OC | –
3 | – | – | – | 60.8 | 56.2 | CNC(=O)c1nnc(NC(=O)C2CC2)cc1Nc1cccc(C(=O)Nc2ccc(N3CCCCC3=O)cc2F)c1OC | –
4 | 55 | – | – | – | – | [2H]C([2H])([2H])NC(=O)c1nnc(NC(=O)C2CC2)cc1Nc1cccc(C(=O)Nc2ccc(-c3cccc(=O)[nH]3)cc2)c1OC | –
5 | – | – | – | 61.1 | 56.2 | CNC(=O)c1nnc(NC(=O)C2CC2)cc1Nc1cccc(C(=O)Nc2ccc(-n3cccn3)cc2)c1OC | –
6 | 24 | – | – | – | – | [2H]C([2H])([2H])NC(=O)c1nnc(NC(=O)C2CC2)cc1Nc1cccc(C(=O)Nc2ccc(-c3cccnc3)cc2)c1OC | –
7 | 11 | – | – | – | – | [2H]C([2H])([2H])NC(=O)c1nnc(NC(=O)C2CC2)cc1Nc1cccc(C(=O)Nc2cccc(-n3ccccc3=O)c2)c1OC | –
8 | 6.4 | 78.5 | 54.9 | – | – | [2H]C([2H])([2H])NC(=O)c1nnc(NC(=O)C2CC2)cc1Nc1cccc(C(=O)Nc2ccc(-n3cccn3)cc2)c1OC | –
9 | – | – | – | 58.2 | 54.9 | CCn1cnc(-c2ccc(NC(=O)c3cccc(Nc4cc(NC(=O)C5CC5)nnc4C(=O)NC)c3OC)cc2)n1 | –
10 | – | – | – | 62 | 57 | CNC(=O)c1nnc(NC(=O)C2CC2)cc1Nc1cccc(C(=O)Nc2ccc(-c3ncn(C4CC4)n3)cc2)c1OC | Active
11 | – | – | – | 57.6 | 52.9 | CNC(=O)c1nnc(NC(=O)C2CC2)cc1Nc1cccc(C(=O)Nc2cccc(-n3ccccc3=O)c2)c1OC | –
12 | – | – | – | 64.8 | 59.6 | CNC(=O)c1nnc(NC(=O)C2CC2)cc1Nc1cccc(C(=O)Nc2ccc(N3CCCCCC3=O)cc2)c1OC | –
13 | 1.9 | 3.26 | 18.2 | – | – | [2H]C([2H])([2H])NC(=O)c1nnc(NC(=O)C2CC2)cc1Nc1cccc(C(=O)Nc2ccc(N3CCCCS3(=O)=O)cc2)c1OC | –
14 | 1.8 | 41.8 | 44.8 | – | – | [2H]C([2H])([2H])NC(=O)c1nnc(NC(=O)C2CC2)cc1Nc1cccc(C(=O)Nc2ccc(C3CCCNC3=O)cc2)c1OC (centres undefined) | –
15 | – | – | – | 65.5 | 60.4 | CNC(=O)c1nnc(NC(=O)C2CC2)cc1Nc1cccc(C(=O)Nc2ccc(N3CCCCC3=O)c(Cl)c2)c1OC | –
16 | – | – | – | 70.2 | 60.1 | CNC(=O)c1nnc(NC(=O)C2CC2)cc1Nc1cccc(C(=O)Nc2ccc(C3CCCNC3=O)cc2)c1OC (centres undefined) | –

Second part, the compound before the results:

Row | Structure (SMILES) | IC50 [1] [nM] | remaining at 1 h [2] [%] | remaining at 1 h [3] [%] | Tm [4] [°C] | Tm [5] [°C] | Activity (Mus musculus)
17 | [2H]C([2H])([2H])NC(=O)c1nnc(NC(=O)C2CC2)cc1Nc1cccc(C(=O)Nc2ccc(-c3ccc(F)c(=O)[nH]3)cc2)c1OC | 13 | 81.8 | 58.2 | – | – | –
18 | [2H]C([2H])([2H])NC(=O)c1nnc(NC(=O)C2CC2)cc1Nc1cccc(C(=O)Nc2ccc(N3CCCCC3)cc2)c1OC | 12 | 1.91 | 9 | – | – | –
19 | CNC(=O)c1nnc(NC(=O)C2CC2)cc1Nc1cccc(C(=O)Nc2ccc(-n3ccccc3=O)cc2)c1OC | – | – | – | 62.2 | 56 | –
20 | CNC(=O)c1nnc(NC(=O)C2CC2)cc1Nc1cccc(C(=O)Nc2ccc(-c3ncn(C)n3)cc2)c1OC | – | – | – | 57 | 53.8 | –
21 | CNC(=O)c1nnc(NC(=O)C2CC2)cc1Nc1cccc(C(=O)Nc2ccc(-c3cccnc3)cc2)c1OC | – | – | – | 55.5 | 54.1 | –
22 | [2H]C([2H])([2H])NC(=O)c1nnc(NC(=O)C2CC2)cc1Nc1cccc(C(=O)Nc2ccc(N3CCCCC3=O)c(Cl)c2)c1OC | 3.1 | 0.06 | 4.53 | – | – | –
23 | CNC(=O)c1nnc(NC(=O)C2CC2)cc1Nc1cccc(C(=O)Nc2ccc(-n3ccnc3)cc2)c1OC | – | – | – | 54 | 52.2 | –
24 | CNC(=O)c1nnc(NC(=O)C2CC2)cc1Nc1cccc(C(=O)Nc2ccc(NC(=O)C3CCCC3)cc2)c1OC | – | – | – | 56.2 | 52.7 | –
25 | [2H]C([2H])([2H])NC(=O)c1nnc(NC(=O)C2CC2)cc1Nc1cccc(C(=O)Nc2ccc(N3CCCCC3=O)cc2)c1OC | 1.4 | 50.6 | 53.9 | – | – | –
26 | CNC(=O)c1nnc(NC(=O)C2CC2)cc1Nc1cccc(C(=O)Nc2ccc(N3CCCCS3(=O)=O)cc2)c1OC | – | – | – | 64.8 | 58.7 | –
27 | CNC(=O)c1nnc(NC(=O)C2CC2)cc1Nc1cccc(C(=O)Nc2ccc(N3CCCCC3)cc2)c1OC | – | – | – | 63.4 | 58.2 | –
28 | [2H]C([2H])([2H])NC(=O)c1nnc(NC(=O)C2CC2)cc1Nc1cccc(C(=O)Nc2ccc(NC(=O)C3CCCC3)cc2)c1OC | 10 | – | – | – | – | –
29 | CNC(=O)c1nnc(Nc2ccc(F)cn2)cc1Nc1cccc(C(=O)Nc2ccc(N3CCCCC3=O)cc2)c1OC | – | – | – | 68.8 | 66 | –
30 | [2H]C([2H])([2H])NC(=O)c1nnc(NC(=O)C2CC2)cc1Nc1cccc(C(=O)Nc2ccc(N3CCCC3=O)cc2)c1OC | 8.3 | 86.9 | 55.1 | – | – | –
31 | [2H]C([2H])([2H])NC(=O)c1nnc(NC(=O)C2CC2)cc1Nc1cccc(C(=O)Nc2ccc(-n3ccccc3=O)cc2)c1OC | 3.2 | 75.8 | 71.3 | – | – | –
32 | [2H]C([2H])([2H])NC(=O)c1nnc(NC(=O)C2CC2)cc1Nc1cccc(C(=O)Nc2ccc(-c3ncn(C)n3)cc2)c1OC | 14 | – | – | – | – | –
33 | CNC(=O)c1nnc(NC(=O)C2CC2)cc1Nc1cccc(C(=O)Nc2ccc(N3CCCC3=O)cc2)c1OC | – | – | – | 61.9 | 56.5 | –
34 | [2H]C([2H])([2H])NC(=O)c1nnc(NC(=O)C2CC2)cc1Nc1cccc(C(=O)Nc2ccc(N3CCCCC3=O)cc2F)c1OC | 5.7 | 37.8 | 36.6 | – | – | –
35 | [2H]C([2H])([2H])NC(=O)c1nnc(NC(=O)C2CC2)cc1Nc1cccc(C(=O)Nc2ccc(-c3ncn(CC)n3)cc2)c1OC | 43 | – | – | – | – | –
36 | [2H]C([2H])([2H])NC(=O)c1nnc(Nc2ccc(F)cn2)cc1Nc1cccc(C(=O)Nc2ccc(N3CCCCC3=O)cc2)c1OC | 1 | 39.9 | 27.5 | – | – | –
37 | [2H]C([2H])([2H])NC(=O)c1nnc(Nc2ccccn2)cc1Nc1cccc(C(=O)Nc2ccc(N3CCCCC3=O)cc2)c1OC | 0.81 | 44.5 | 23 | – | – | –
38 | CNC(=O)c1nnc(NC(=O)C2CC2)cc1Nc1cccc(C(=O)Nc2ccc(-c3ccc(F)c(=O)[nH]3)cc2)c1OC | – | – | – | 60.1 | 55.9 | –
39 | [2H]C([2H])([2H])NC(=O)c1nnc(NC(=O)C2CC2)cc1Nc1cccc(C(=O)Nc2ccc(-n3ccnc3)cc2)c1OC | 51 | – | – | – | – | –
40 | CNC(=O)c1nnc(NC(=O)C2CC2)cc1Nc1cccc(C(=O)Nc2ccc(N3CCCCC3=O)cc2)c1OC | – | – | – | 66.6 | 60.6 | –
41 | [2H]C([2H])([2H])NC(=O)c1nnc(NC(=O)C2CC2)cc1Nc1cccc(C(=O)Nc2ccc(N3CCCCCC3=O)cc2)c1OC | 2.5 | 0.39 | 5.63 | – | – | –
